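Protocol summary: plate cells (96-well), add compound at 5 concentrations, incubate 48 h, interpolate endpoints linearly. TGI is the concentration that stops growth completely.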
Assays:
Assay in all cases: DTP human tumour cell line panel, 48 h
[1] = system: 786-0 renal
[2] = system: A498 renal
[3] = system: A549 NSCLC
[4] = system: ACHN renal
[5] = system: BT-549 breast
[6] = system: CAKI-1 renal
[7] = system: CCRF-CEM leukemia
[8] = system: COLO 205 colon
[9] = system: DU-145 prostate
[10] = system: EKVX NSCLC
[11] = system: HCC-2998 colon
[12] = system: HCT-116 colon
[13] = system: HCT-15 colon
[14] = system: HL-60(TB) leukemia
[15] = system: HOP-62 NSCLC
[16] = system: HOP-92 NSCLC
[17] = system: HS 578T breast
[18] = system: HT29 colon
[19] = system: IGROV1 ovarian
[20] = system: K-562 leukemia
[21] = system: KM12 colon
[22] = system: LOX IMVI melanoma
[23] = system: M14 melanoma
[24] = system: MALME-3M melanoma
[25] = system: MCF7 breast
[26] = system: MDA-MB-231 breast
[27] = system: MDA-MB-435
[28] = system: MDA-N
[29] = system: MOLT-4 leukemia
[30] = system: NCI-H226 lung
[31] = system: NCI-H23 lung
[32] = system: NCI-H460 lung
[33] = system: NCI-H522 lung
[34] = system: NCI/ADR-RES ovarian
[35] = system: OVCAR-3 ovarian
[36] = system: OVCAR-4 ovarian
[37] = system: OVCAR-5 ovarian
[38] = system: OVCAR-8 ovarian
[39] = system: PC-3 prostate
[40] = system: RPMI-8226 leukemia
[41] = system: RXF 393 renal
[42] = system: SF-268 CNS
[43] = system: SF-295 CNS
[44] = system: SF-539 CNS
[45] = system: SK-MEL-2 melanoma
[46] = system: SK-MEL-28 melanoma
[47] = system: SK-MEL-5 melanoma
[48] = system: SK-OV-3 ovarian
[49] = system: SN12C renal
[50] = system: SNB-19 CNS
[51] = system: SNB-75 CNS
[52] = system: SR leukemia
[53] = system: SW-620 colon
[54] = system: T-47D breast
[55] = system: TK-10 renal
[56] = system: U251 CNS
[57] = system: UACC-257 melanoma
[58] = system: UACC-62 melanoma
[59] = system: UO-31 renal
[60] = system: DMS 114 small cell lung
[61] = system: DMS 273 small cell lung
[62] = system: HOP-18 NSCLC
[63] = system: KM20L2 colon
[64] = system: M19-MEL melanoma
[65] = system: SNB-78 CNS
[66] = system: DLD-1 colon
[67] = system: LXFL 529 NSCLC
[68] = system: XF 498 CNS

CCCOC(=O)c1cc(O)c(O)c(O)c1
TGI [1]: > 100 µM | TGI [2]: > 100 µM | TGI [3]: > 100 µM | TGI [4]: > 100 µM | TGI [5]: > 100 µM | TGI [6]: > 100 µM | TGI [7]: > 100 µM | TGI [8]: > 100 µM | TGI [9]: > 100 µM | TGI [10]: > 100 µM | TGI [11]: > 100 µM | TGI [12]: 45.3 µM | TGI [13]: > 100 µM | TGI [14]: > 100 µM | TGI [15]: > 100 µM | TGI [16]: > 100 µM | TGI [17]: > 100 µM | TGI [18]: > 100 µM | TGI [19]: > 100 µM | TGI [20]: > 100 µM | TGI [21]: > 100 µM | TGI [22]: 30.8 µM | TGI [23]: > 100 µM | TGI [24]: > 100 µM | TGI [25]: > 100 µM | TGI [26]: > 100 µM | TGI [27]: 81.1 µM | TGI [28]: 76.9 µM | TGI [29]: > 100 µM | TGI [30]: > 100 µM | TGI [31]: > 100 µM | TGI [32]: > 100 µM | TGI [33]: 77 µM | TGI [34]: > 100 µM | TGI [35]: 79.8 µM | TGI [36]: > 100 µM | TGI [37]: > 100 µM | TGI [38]: > 100 µM | TGI [39]: > 100 µM | TGI [40]: > 100 µM | TGI [41]: > 100 µM | TGI [42]: > 100 µM | TGI [43]: > 100 µM | TGI [44]: 70.9 µM | TGI [45]: > 100 µM | TGI [46]: > 100 µM | TGI [47]: > 100 µM | TGI [48]: > 100 µM | TGI [49]: > 100 µM | TGI [50]: > 100 µM | TGI [51]: > 100 µM | TGI [52]: > 100 µM | TGI [53]: > 100 µM | TGI [54]: > 100 µM | TGI [55]: > 100 µM | TGI [56]: > 100 µM | TGI [57]: > 100 µM | TGI [58]: > 100 µM | TGI [59]: > 100 µM

CNC(=S)N/N=C/C(C)=N/NC(=S)NC
TGI [1]: > 100 µM | TGI [2]: > 100 µM | TGI [3]: > 100 µM | TGI [4]: > 100 µM | TGI [8]: > 100 µM | TGI [60]: > 100 µM | TGI [61]: > 100 µM | TGI [10]: > 100 µM | TGI [11]: > 100 µM | TGI [12]: > 100 µM | TGI [13]: > 100 µM | TGI [62]: > 100 µM | TGI [15]: > 100 µM | TGI [21]: > 100 µM | TGI [63]: > 100 µM | TGI [22]: > 100 µM | TGI [23]: > 100 µM | TGI [64]: > 100 µM | TGI [24]: > 100 µM | TGI [29]: > 100 µM | TGI [31]: > 100 µM | TGI [32]: > 100 µM | TGI [33]: > 100 µM | TGI [35]: > 100 µM | TGI [37]: > 100 µM | TGI [40]: > 100 µM | TGI [41]: > 100 µM | TGI [42]: > 100 µM | TGI [43]: > 100 µM | TGI [44]: > 100 µM | TGI [45]: > 100 µM | TGI [46]: > 100 µM | TGI [47]: > 100 µM | TGI [48]: > 100 µM | TGI [49]: > 100 µM | TGI [50]: > 100 µM | TGI [65]: > 100 µM | TGI [53]: > 100 µM | TGI [55]: > 100 µM | TGI [56]: > 100 µM | TGI [58]: > 100 µM | TGI [59]: > 100 µM

O=c1c(-c2nc3ccccc3c3ccccc3c2=O)nc2ccccc2c2ccccc12
TGI [1]: > 100 µM | TGI [2]: > 100 µM | TGI [3]: > 100 µM | TGI [4]: > 100 µM | TGI [5]: > 100 µM | TGI [6]: > 100 µM | TGI [7]: 86.8 µM | TGI [8]: > 100 µM | TGI [9]: > 100 µM | TGI [10]: > 100 µM | TGI [11]: 68 µM | TGI [12]: 71.6 µM | TGI [13]: > 100 µM | TGI [14]: 58.5 µM | TGI [15]: > 100 µM | TGI [16]: > 100 µM | TGI [17]: > 100 µM | TGI [18]: > 100 µM | TGI [19]: > 100 µM | TGI [20]: > 100 µM | TGI [21]: > 100 µM | TGI [22]: > 100 µM | TGI [23]: > 100 µM | TGI [24]: > 100 µM | TGI [25]: > 100 µM | TGI [26]: > 100 µM | TGI [27]: 89 µM | TGI [28]: 69 µM | TGI [29]: > 100 µM | TGI [30]: > 100 µM | TGI [31]: > 100 µM | TGI [32]: > 100 µM | TGI [33]: > 100 µM | TGI [34]: > 100 µM | TGI [35]: 97.3 µM | TGI [36]: > 100 µM | TGI [37]: > 100 µM | TGI [38]: > 100 µM | TGI [39]: 89.6 µM | TGI [40]: > 100 µM | TGI [41]: 82.9 µM | TGI [42]: > 100 µM | TGI [43]: > 100 µM | TGI [44]: 55.3 µM | TGI [45]: > 100 µM | TGI [46]: > 100 µM | TGI [47]: 86.2 µM | TGI [48]: > 100 µM | TGI [49]: 99.1 µM | TGI [50]: > 100 µM | TGI [51]: 94.9 µM | TGI [52]: 61 µM | TGI [53]: > 100 µM | TGI [54]: > 100 µM | TGI [55]: > 100 µM | TGI [56]: 60.3 µM | TGI [57]: > 100 µM | TGI [58]: > 100 µM | TGI [59]: > 100 µM

O=C1CCC(c2ccccc2)=NN1c1nc2ccccc2s1
TGI [1]: > 100 µM | TGI [2]: > 100 µM | TGI [3]: > 100 µM | TGI [4]: > 100 µM | TGI [5]: 82.5 µM | TGI [6]: > 100 µM | TGI [7]: 71.8 µM | TGI [8]: 18.1 µM | TGI [66]: > 100 µM | TGI [60]: > 100 µM | TGI [61]: > 100 µM | TGI [9]: 64.6 µM | TGI [10]: > 100 µM | TGI [11]: > 61 µM | TGI [12]: > 88.2 µM | TGI [13]: 99.1 µM | TGI [14]: 99.2 µM | TGI [62]: > 100 µM | TGI [15]: > 100 µM | TGI [16]: > 73.8 µM | TGI [17]: > 100 µM | TGI [18]: > 100 µM | TGI [19]: > 100 µM | TGI [20]: > 100 µM | TGI [21]: > 100 µM | TGI [22]: > 100 µM | TGI [67]: > 100 µM | TGI [23]: > 100 µM | TGI [64]: > 100 µM | TGI [24]: 95.6 µM | TGI [25]: > 100 µM | TGI [26]: 55.9 µM | TGI [27]: 69.7 µM | TGI [28]: > 100 µM | TGI [29]: > 94.4 µM | TGI [30]: > 100 µM | TGI [31]: > 84.6 µM | TGI [32]: > 64.4 µM | TGI [33]: 59 µM | TGI [34]: 76.6 µM | TGI [35]: 42.4 µM | TGI [36]: > 100 µM | TGI [37]: > 100 µM | TGI [38]: > 100 µM | TGI [39]: 69.2 µM | TGI [40]: > 87.9 µM | TGI [41]: 34.1 µM | TGI [42]: > 83 µM | TGI [43]: > 85.2 µM | TGI [44]: > 63.7 µM | TGI [45]: 42.5 µM | TGI [46]: > 100 µM | TGI [47]: 53.1 µM | TGI [48]: 79.6 µM | TGI [49]: > 94.1 µM | TGI [50]: > 100 µM | TGI [51]: > 79.4 µM | TGI [65]: > 100 µM | TGI [52]: > 84.6 µM | TGI [53]: > 100 µM | TGI [54]: 32.7 µM | TGI [55]: > 88 µM | TGI [56]: > 100 µM | TGI [57]: > 80.2 µM | TGI [58]: > 100 µM | TGI [59]: > 100 µM | TGI [68]: 86.7 µM

Source: PubChem BioAssay (NCI)
